Reference: patent US10857197B2, “Treatment of HMGB1-mediated inflammation” (The Feinstein Institue for Medical Research, priority 2014, dated 2020)
Residue numbers refer to the chain shown, from its start. Names and notes keep the numbering of the source.

Legend:
[1] = tested on: HMGB1-induced TNF release, primary human macrophages; test: HMGB1-induced TNF release in primary human macrophages (ELISA); type: cell-based; conditions: HMGB1 1 μg/ml, 16 h
[2] = biological target: T1, HMGB1 (Rattus norvegicus, UniProt P63159); test: SPR binding of peptide to HMGB1 coated on the chip; conditions: absence of MD2
T1 sequence (P63159 1-215): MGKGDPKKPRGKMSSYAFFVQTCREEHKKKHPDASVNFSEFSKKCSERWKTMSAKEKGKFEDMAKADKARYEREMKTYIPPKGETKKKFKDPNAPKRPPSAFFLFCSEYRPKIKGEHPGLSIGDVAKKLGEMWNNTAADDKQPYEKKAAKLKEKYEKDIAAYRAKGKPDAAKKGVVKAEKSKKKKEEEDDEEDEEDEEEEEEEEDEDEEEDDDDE

[3] = Cecal ligation and puncture (CLP) sepsis model; type: in vivo; conditions: 50 or 500 μg/mouse i.p. once a day for 4 days from 24 h after CLP
From the text: Survival was monitored for 2 weeks.

[4] = tested on: Poly I:C, S100A12, LPS, PGN and CpG DNA-mediated TNF release, primary human macrophages; conditions: 16 h
[5] = biological target: human TLR4 (Homo sapiens, UniProt O00206); test: SPR binding to TLR4 coated on the chip
[6] = 500 μg/mouse i.p. at surgery, 6 h
[7] = tested on: LPS-stimulated primary human macrophages; test: LPS-stimulated cytokine/chemokine release, primary human macrophages (cytokine Ab array); type: cell-based; conditions: LPS 2 ng/ml, peptide 50 μg/ml, 16 h
Method: (§1) Cytokine and NF-κB measurements. […] Twenty two cytokines or chemokines were determined simultaneously.

[8] = tested on: thioglycollate-elicited peritoneal mouse macrophages; test: HMGB1-induced cytokine release, mouse peritoneal macrophages (cytokine Ab array); type: cell-based; conditions: HMGB1 1 μg/ml, peptide 50 μg/ml, 16 h
Method: (§2) Cell isolation and culture. […] […]. TNF released was measured by ELISA.
as §1

[9] = Acetaminophen (APAP) hepatic toxicity model; type: in vivo, mouse
Method: For the acetaminophen (APAP) hepatic toxicity model, three sets of experiments were conducted. In all experiments, mice were routinely fasted overnight and received intraperitoneal (IP) injection of APAP (350 mg/kg for survival studies and 400 mg/kg for serum measurements when mice were euthanized at 24 h post-APAP) as previous described. […] Mice had APAP injection and were euthanized 24 hours later (for serum measurements) or monitored for 2 weeks (for survival studies). […] In survival experiments, mice had APAP injection and received anti-HMGB1 antibodies (5 μg/mouse, IP, once daily for 4 days followed by two additional doses once every other day beginning at 2 hours post-APAP). Irrelevant non-immune IgG was used as controls. For serum measurements, mice subjected to APAP injection and received injection of monoclonal anti-HMGB1 antibody (5 μg/mouse, injected IP at 2 and 7 hours post-APAP) and euthanized at 24 hours post-APAP. The third set of experiments was used to assess the efficacy of P5779 in APAP model in wild type mice. […] Hepatotoxicity was determined by serum levels of glutamate dehydrogenase (GLDH), alanine aminotransferease (ALT) and aspartate aminotransferase (AST) as described previously. Antoine et al., Hepatology 58:777-787 (2013).
Histological evaluation. […] sections were stained with hematoxylin and eosin.

[10] = tested on: LPS-induced systemic cytokine levels; test: LPS injection in mice, serum TNF and IL-6; type: in vivo; conditions: LPS 8 mg/kg i.p., peptide 500 μg/mouse i.p., 90 minutes
Method: as §1

[11] = biological target: T2, human MD2 (Homo sapiens, UniProt Q9Y6Y9); test: Surface plasmon resonance (BIAcore) binding to human MD2; conditions: SPR
T2 sequence (Q9Y6Y9 19-160): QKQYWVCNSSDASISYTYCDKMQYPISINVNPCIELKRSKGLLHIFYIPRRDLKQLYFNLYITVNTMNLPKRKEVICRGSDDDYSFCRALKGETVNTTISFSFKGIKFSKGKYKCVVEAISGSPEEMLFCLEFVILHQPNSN

[12] = tested on: RAW 264.7 cells; test: TNF release from RAW 264.7 cells stimulated with HMGB1 isoforms; type: cell-based, murine; conditions: 1 μg/ml, 16 h
Method: as §2, §1

Chain of human TLR4 (O00206 24-839): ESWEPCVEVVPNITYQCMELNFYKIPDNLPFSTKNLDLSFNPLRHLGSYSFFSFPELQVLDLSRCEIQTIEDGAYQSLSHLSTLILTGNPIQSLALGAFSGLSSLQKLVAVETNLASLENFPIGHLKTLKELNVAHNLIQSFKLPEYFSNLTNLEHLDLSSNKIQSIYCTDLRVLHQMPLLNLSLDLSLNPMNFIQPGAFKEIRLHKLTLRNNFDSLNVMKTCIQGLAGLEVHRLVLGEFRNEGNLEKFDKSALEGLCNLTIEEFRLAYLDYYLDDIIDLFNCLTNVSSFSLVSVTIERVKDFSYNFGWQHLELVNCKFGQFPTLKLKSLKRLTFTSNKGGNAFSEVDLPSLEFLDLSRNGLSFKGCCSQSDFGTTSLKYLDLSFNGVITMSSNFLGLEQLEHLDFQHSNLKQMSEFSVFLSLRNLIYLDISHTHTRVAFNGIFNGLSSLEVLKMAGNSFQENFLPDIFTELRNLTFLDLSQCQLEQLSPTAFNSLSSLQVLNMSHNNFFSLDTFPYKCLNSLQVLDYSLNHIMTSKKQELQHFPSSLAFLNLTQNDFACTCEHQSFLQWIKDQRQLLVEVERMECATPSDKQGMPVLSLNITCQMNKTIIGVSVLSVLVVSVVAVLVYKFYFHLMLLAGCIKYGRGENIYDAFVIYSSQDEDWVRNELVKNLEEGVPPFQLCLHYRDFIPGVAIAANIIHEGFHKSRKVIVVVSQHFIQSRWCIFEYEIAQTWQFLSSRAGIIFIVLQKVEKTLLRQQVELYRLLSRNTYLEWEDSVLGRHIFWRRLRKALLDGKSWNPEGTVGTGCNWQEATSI

With N[C@@H](Cc1ccccc1)C(=O)N[C@@H](CO)C(=O)N[C@@H](CO)C(=O)N[C@@H](CCC(=O)O)C(=O)O [P5779, FSSE] the “inhibition of HMGB1-induced TNF release (qualitative)” value [1] was “significantly inhibited”, the “binding to HMGB1” value [2] was “failed to bind” and the “survival after CLP vs scrambled peptide” value [3] was “significantly and dose-dependently improved survival rates”. The “inhibition of TNF release mediated by Poly I:C, S100A12, LPS, PGN and CpG DNA” value [4] was “failed to inhibit”, the “binding to TLR4” value ([5]; SPR, absence of MD2) was “failed to bind” and the “hepatic serum enzyme release (AST, ALT) and neutrophil infiltration” value [6] was “significantly blunted”. The “LPS-stimulated cytokine/chemokine release in vitro” value [7] was “did not inhibit”, the “HMGB1-induced release of IL-6, IL-12p40/p70, RANTES and MCP-1” value [8] was “significantly reduced” and the “survival after APAP” value ([9]; 500 μg/mouse i.p. once a day for 5 days, 2 weeks) was “improved survival”. The “APAP-induced elevation of hepatic serum enzymes (AST, ALT), TNF, liver necrosis” value ([9]; 50 or 500 μg/mouse i.p. at 2 and 7 h post-APAP, 24 h) was “dose-dependently reduced” and the “LPS-induced systemic cytokine levels (serum TNF, IL-6)” value [10] was “failed to attenuate”.

With “SFSE (MD2 binding protein) [control peptide, reference compound]” the “inhibition of HMGB1-induced TNF release (qualitative)” value [1] was “abolished the capacity to inhibit HMGB1-induced TNF release” and the “MD2-binding capacity (qualitative)” value ([11]; peptides 100 nM) was “abolished the MD2-binding capacity”.

With “disulfide HMGB1: recombinant HMGB1 with Cys23-Cys45 disulfide bond and reduced Cys106” the “HMGB1 binding to TLR4 in the absence of MD2” value ([5]; disulfide HMGB1 100 nM) was “incapable of directly binding to TLR4”, the Kd ([11]; read-out: apparent Kd of HMGB1 binding to MD2, MD2 or HMGB1 immobilized on the chip) was 12 nM and the “TNF release induced by HMGB1 isoform” value [12] was “induced TNF secretion”.

B1: H2S-modified HMGB1: HMGB1 with cysteine modified by H2S (NaSH) (protein, UniProt P09429 1-215, looked up)
High mobility group protein B1: T1 sequence (P63159 1-215) with D189E, E202D
modifications: cysteine modified by H2S
For B1, the “TNF release induced by HMGB1 isoform” value [12] was “failed to induce TNF release”.

B2: fully reduced HMGB1: HMGB1 with all cysteine residues reduced (protein)
chain: T1 sequence (P63159 1-215)
For B2, the “TNF release induced by HMGB1 isoform” value [12] was “failed to induce TNF release”.

B3: sulfonyl HMGB1: HMGB1 with all cysteines terminally oxidized (protein)
chain: T1 sequence (P63159 1-215)
For B3, the “TNF release induced by HMGB1 isoform” value [12] was “failed to induce TNF release”.
